Here are results for five molecules from PMC3925085, “Subditine, a New Monoterpenoid Indole Alkaloid from Bark of Nauclea subdita (Korth.) Steud. Induces Apoptosis in Human Prostate Cancer Cells” (PLoS ONE, 2014).

As a reminder, the IC50 is the point on the concentration scale where inhibition reaches its midpoint. A low value points to higher potency.

Type in all cases: cell-based
Assay [1] relates to LNCaP human prostate cancer cells. As to the kind of experiment: MTT cell proliferation assay, LNCaP. The settings on record: for IC50: Homo sapiens, MTT, 24 hours, LNCaP, mean ± S.D. The method, then: (§1) Human prostate normal cell line (RWPE-1) and human prostate cancer cell lines; LNCaP and PC-3, were purchased from the American Type Culture Collection (ATCC, Manassas, Virginia, USA). LNCaP and PC-3 cells were grown in Roswell Park Memorial Institute medium (RPMI) supplemented with 10% heat-inactivated fetal bovine serum (FBS, Sigma-Aldrich, St. Louis, MO), 1% penicillin and streptomycin. RWPE-1 cells were maintained in Keratinocyte Serum Free Medium (K-SFM, ATCC) supplemented with bovine pituitary extract (BPE) and human recombinant epidermal growth factor (EGF). Mediums were supplemented with 10% heat-inactivated fetal calf serum (Sigma.), 100 U/ml penicillin and […] streptomycin (Flowlab, Sydney, Australia). All cells were maintained in a humidified atmosphere of 5% CO2 in air at 37°C incubator.
(§2) The anti-proliferative activity was evaluated by performing MTT assays as previously described with minor modifications. Briefly, cells were seeded 24 hours prior to treatment in a 96-well plate at 5×10^4 cells/well in order to obtain 70% to 80% confluent cultures. The compounds were dissolved in DMSO (Sigma Chemical Co., St. Louis, Missouri, USA) followed by a 2×serial dilution for 10 points ranged from 0.825 µM to 100 µM. The 96-well plate was incubated for 24 hours at 37°C in a humidified atmosphere with 5% CO2. At the end of incubation, 50 µl of MTT solution (2 mg/ml; Sigma) was added to each well. The plate was then incubated for 4 hours. All medium was removed and the purple formazan crystal formed at the bottom of the wells was dissolved with 200 µl DMSO for 20 minutes. The absorbance at 570 nm was read on a spectrophotometric plate reader (Hidex). The proportion of surviving cells was calculated as: […]
(§3) Dose-response curves were constructed to obtain the IC50 values. Experimental data were derived from 3 independent experiments. The selectivity index was obtained by mean IC50 RWPE-1/mean IC50 of LNCaP or PC-3.
For orientation: Tetrazolium assays rely on reduction of a dye to a coloured formazan, in cell work by metabolically active cells.

Assay [2] deals with PC-3 human prostate cancer cells. As to the kind of experiment: MTT cell proliferation assay, PC-3. The settings on record: for IC50: Homo sapiens, MTT, 24 hours, PC-3, mean ± S.D. Here is the method: as §1, §2, §3
The subject of assay [3] is RWPE-1 human normal prostate epithelial cells. Description: MTT cell proliferation assay, RWPE-1. The following applies: 24 hours, RWPE-1 normal cells, mean ± S.D. The method, then: as §1, §2, §3

Consider `Cc1cc2cc3n(c(=O)c2cn1)CCc1c-3[nH]c2ccccc12` [Angustidine, angustidine], for which the IC50 in assay [1] is 140.27 ± 0.1 µM; in assay [2], 84.9 ± 1.48 µM; in assay [3] it was 36.07 ± 0.05 µM.

Turning to `C=Cc1cncc2c(=O)n3c(cc12)-c1[nH]c2ccccc2c1CC3` [Angustine, angustine], the figures for the IC50 in assay [1], in assay [2] and in assay [3] were 149.16 ± 0.09 µM, 122 ± 3.73 µM and 98.39 ± 0.1 µM, respectively.

For `CC(O)c1cncc2c(=O)n3c(cc12)-c1[nH]c2ccccc2c1CC3` (centres unmarked) [Angustoline, 1-(1-Hydroxyethyl)-7,8-dihydroindolo[2,3-a]pyridine[3,4-g]quinolizin-5(13H)-one], the figures for the IC50 in assay [1], in assay [2] and in assay [3] were 58.09 ± 0.05 µM, 67.3 ± 0.87 µM and 65.94 ± 0.04 µM, respectively.

`O=c1c2cnccc2cc2n1CCc1c-2[nH]c2ccccc12` [Nauclefine, nauclefine]: the IC50 stood at 86.35 ± 0.09 µM in assay [1], 92.1 ± 1.28 µM in assay [2] and 72.85 ± 0.06 µM in assay [3].

Regarding `CC(=O)O[C@H]1C(=O)[C@@]2(C)[C@H]([C@H](OC(=O)c3ccccc3)[C@]3(O)C[C@H](OC(=O)[C@H](O)[C@@H](NC(=O)c4ccccc4)c4ccccc4)C(C)=C1C3(C)C)[C@]1(OC(C)=O)CO[C@@H]1C[C@@H]2O` [Paclitaxel, paclitaxel, reference compound], the IC50 was found to be 1.27 ± 0.04 µM in assay [1], 1.33 ± 0.02 µM in assay [2] and 1.58 ± 0.06 µM in assay [3]. The “selectivity index (SI) LNCaP” value in assay [1] (mean IC50 RWPE-1/mean IC50 of LNCaP) is listed as 1.24. Also, the “selectivity index (SI) PC-3” value in assay [2] (mean IC50 RWPE-1/mean IC50 of PC-3) was determined as 1.19.
